From PubChem BioAssay AID2060512 (Molecular Pharmacology Branch, DTP, NCI, 2025)

System: 186277-243-T-J2-PDC complex spheroid viability
Assay: Anticancer human tumor 186277-243-T-J2-PDC patient-derived colon adenocarcinoma cell line growth inhibition [GQUAD]
Settings: for IC50: curve of first compound; for viability, T/C: stronger effect = lower value; active = viability on the fitted dose curve at most 10% of control; inactive = the rest
Procedure, shortened: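 Tumor cells were grown as complex spheroids with HUVEC endothelial cells and mesenchymal stem cells as stroma. G-quadruplex stabilizers were combined with targeted agents over half-log dilutions from near the clinical Cmax, or from 10 microM.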

[1] = second compound 0.0316 µM, first compound 0.0316 µM
[2] = second compound 0.0316 µM, first compound 0.1 µM
[3] = second compound 0.0316 µM, first compound 0.316 µM
[4] = second compound 0.0316 µM, first compound 1 µM
[5] = second compound 0.0316 µM, first compound 3.16 µM
[6] = second compound 0.0316 µM, first compound 10 µM
[7] = second compound 0.1 µM, first compound 0.0316 µM
[8] = second compound 0.1 µM, first compound 0.1 µM
[9] = second compound 0.1 µM, first compound 0.316 µM
[10] = second compound 0.1 µM, first compound 1 µM
[11] = second compound 0.1 µM, first compound 3.16 µM
[12] = second compound 0.1 µM, first compound 10 µM
[13] = second compound 0.316 µM, first compound 0.0316 µM
[14] = second compound 0.316 µM, first compound 0.1 µM
[15] = second compound 0.316 µM, first compound 0.316 µM
[16] = second compound 0.316 µM, first compound 1 µM
[17] = second compound 0.316 µM, first compound 3.16 µM
[18] = second compound 0.316 µM, first compound 10 µM
[19] = second compound 1 µM, first compound 0.0316 µM
[20] = second compound 1 µM, first compound 0.1 µM
[21] = second compound 1 µM, first compound 0.316 µM
[22] = second compound 1 µM, first compound 1 µM
[23] = second compound 1 µM, first compound 3.16 µM
[24] = second compound 1 µM, first compound 10 µM
[25] = second compound 3.16 µM, first compound 0.0316 µM
[26] = second compound 3.16 µM, first compound 0.1 µM
[27] = second compound 3.16 µM, first compound 0.316 µM
[28] = second compound 3.16 µM, first compound 1 µM
[29] = second compound 3.16 µM, first compound 3.16 µM
[30] = second compound 3.16 µM, first compound 10 µM
[31] = second compound 10 µM, first compound 0.0316 µM
[32] = second compound 10 µM, first compound 0.1 µM
[33] = second compound 10 µM, first compound 0.316 µM
[34] = second compound 10 µM, first compound 1 µM
[35] = second compound 10 µM, first compound 3.16 µM
[36] = second compound 10 µM, first compound 10 µM
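Note: spheroids exposed to drugs for 7 days.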
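Throughout, for viability, T/C: 100% = DMSO vehicle control viability.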

Cc1cccc(N(C)C(=O)C2C(O)CCN2c2nc(C)cc(C(F)(F)F)c2C#N)c1 (stereo unspecified) + CN(C)c1ccc(Nc2c3ccc(NC(=O)CCN4CCCC4)cc3nc3cc(NC(=O)CCN4CCCC4)ccc23)cc1
inactive: viability, T/C [1] 88.8% | viability, T/C [2] 99.5% | viability, T/C [3] 115% | viability, T/C [4] 109% | viability, T/C [5] 105% | viability, T/C [6] 100% | viability, T/C [7] 94.1% | viability, T/C [8] 105% | viability, T/C [9] 94.9% | viability, T/C [10] 91.8% | viability, T/C [11] 108% | viability, T/C [12] 88.7% | viability, T/C [13] 81% | viability, T/C [14] 107% | viability, T/C [15] 98.9% | viability, T/C [16] 97.6% | viability, T/C [17] 102% | viability, T/C [18] 104% | viability, T/C [19] 97.1% | viability, T/C [20] 93.2% | viability, T/C [21] 98.9% | viability, T/C [22] 101% | viability, T/C [23] 102% | viability, T/C [24] 114% | viability, T/C [25] 86.4% | viability, T/C [26] 91.7% | viability, T/C [27] 106% | viability, T/C [28] 118% | viability, T/C [29] 83% | viability, T/C [30] 110% | viability, T/C [31] 88.6% | viability, T/C [32] 104% | viability, T/C [33] 93.7% | viability, T/C [34] 120% | viability, T/C [35] 98.2% | viability, T/C [36] 75.6%
> 10 µM: IC50 (second compound 0.0316 µM) | IC50 (second compound 0.1 µM) | IC50 (second compound 0.316 µM) | IC50 (second compound 1 µM) | IC50 (second compound 3.16 µM) | IC50 (second compound 10 µM)

Cn1ncnc1[C@H]1c2n[nH]c(=O)c3cc(F)cc(c23)N[C@@H]1c1ccc(F)cc1 + CN(C)c1ccc(Nc2c3ccc(NC(=O)CCN4CCCC4)cc3nc3cc(NC(=O)CCN4CCCC4)ccc23)cc1
> 0.316 µM: IC50 (second compound 0.0316 µM) | IC50 (second compound 0.1 µM) | IC50 (second compound 0.316 µM) | IC50 (second compound 1 µM) | IC50 (second compound 3.16 µM) | IC50 (second compound 10 µM)
inactive: viability, T/C (second compound 0.0316 µM, first compound 0.000999 µM) 91.8% | viability, T/C (second compound 0.0316 µM, first compound 0.00316 µM) 104% | viability, T/C (second compound 0.0316 µM, first compound 0.00999 µM) 108% | viability, T/C [1] 80.6% | viability, T/C (second compound 0.0316 µM, first compound 0.0999 µM) 86.6% | viability, T/C [3] 76.8% | viability, T/C (second compound 0.1 µM, first compound 0.000999 µM) 108% | viability, T/C (second compound 0.1 µM, first compound 0.00316 µM) 113% | viability, T/C (second compound 0.1 µM, first compound 0.00999 µM) 96.2% | viability, T/C [7] 114% | viability, T/C (second compound 0.1 µM, first compound 0.0999 µM) 90.2% | viability, T/C [9] 82% | viability, T/C (second compound 0.316 µM, first compound 0.000999 µM) 83.8% | viability, T/C (second compound 0.316 µM, first compound 0.00316 µM) 108% | viability, T/C (second compound 0.316 µM, first compound 0.00999 µM) 102% | viability, T/C [13] 115% | viability, T/C (second compound 0.316 µM, first compound 0.0999 µM) 92.1% | viability, T/C [15] 86.8% | viability, T/C (second compound 1 µM, first compound 0.000999 µM) 105% | viability, T/C (second compound 1 µM, first compound 0.00316 µM) 91.8% | viability, T/C (second compound 1 µM, first compound 0.00999 µM) 97.6% | viability, T/C [19] 106% | viability, T/C (second compound 1 µM, first compound 0.0999 µM) 85.6% | viability, T/C [21] 85% | viability, T/C (second compound 3.16 µM, first compound 0.000999 µM) 101% | viability, T/C (second compound 3.16 µM, first compound 0.00316 µM) 94.7% | viability, T/C (second compound 3.16 µM, first compound 0.00999 µM) 107% | viability, T/C [25] 94% | viability, T/C (second compound 3.16 µM, first compound 0.0999 µM) 85.5% | viability, T/C [27] 94.6% | viability, T/C (second compound 10 µM, first compound 0.000999 µM) 114% | viability, T/C (second compound 10 µM, first compound 0.00316 µM) 92.3% | viability, T/C (second compound 10 µM, first compound 0.00999 µM) 99.2% | viability, T/C [31] 106% | viability, T/C (second compound 10 µM, first compound 0.0999 µM) 83.6% | viability, T/C [33] 82%

O=C(c1cc(Cc2n[nH]c(=O)c3ccccc23)ccc1F)N1CCN(C(=O)C2CC2)CC1 + CN(C)c1ccc(Nc2c3ccc(NC(=O)CCN4CCCC4)cc3nc3cc(NC(=O)CCN4CCCC4)ccc23)cc1
inactive: viability, T/C [1] 116% | viability, T/C [2] 122% | viability, T/C [3] 115% | viability, T/C [4] 93.5% | viability, T/C [5] 81.8% | viability, T/C [6] 70.2% | viability, T/C [7] 117% | viability, T/C [8] 118% | viability, T/C [9] 115% | viability, T/C [10] 99% | viability, T/C [11] 103% | viability, T/C [12] 53.5% | viability, T/C [13] 97.7% | viability, T/C [14] 111% | viability, T/C [15] 102% | viability, T/C [16] 95.1% | viability, T/C [17] 111% | viability, T/C [18] 63.4% | viability, T/C [19] 98.2% | viability, T/C [20] 100% | viability, T/C [21] 105% | viability, T/C [22] 110% | viability, T/C [23] 89.9% | viability, T/C [24] 75.9% | viability, T/C [25] 90.4% | viability, T/C [26] 109% | viability, T/C [27] 95.3% | viability, T/C [28] 100% | viability, T/C [29] 78.7% | viability, T/C [30] 64.5% | viability, T/C [31] 105% | viability, T/C [32] 116% | viability, T/C [33] 120% | viability, T/C [34] 111% | viability, T/C [35] 95.9% | viability, T/C [36] 54.9%
> 10 µM: IC50 (second compound 0.0316 µM) | IC50 (second compound 0.1 µM) | IC50 (second compound 0.316 µM) | IC50 (second compound 1 µM) | IC50 (second compound 3.16 µM) | IC50 (second compound 10 µM)
